Experiments:
[1] = Stability of vancomycin in extracted human plasma samples; assay type: physicochemical; settings: for Mean back calculated Vancomycin Concentrations: extracted human plasma, HPLC-UV, mean of n = 5
Description: (§1) The chromatographic separation was performed using HPLC-UV (Shimadzu, Kyoto, Japan), which consisted of solvent delivery pumps (LC-20 AT), an SIL-20A autosampler, and a UV-VIS detector (SPD-10A VP). The HPLC chromatographic separation was performed using a reverse-phase Supleco Discovery® C18 column (5 μm, 250 × 4.6 mm) (Supleco Inc., Mississauga, ON, Canada) with a Discovery® C18 Supelguard™ guard column (5 μm, 20 × 4 mm) (Supleco Inc., Mississauga, ON, Canada). LabSolutions Lite® software version 5.93 (Shimadzu, Kyoto, Japan) was used for the acquisition of data and analysis integration. The mobile phase comprised phosphate buffer and ACN (90:10, v/v). A phosphate buffer with a pH of 2.8 was prepared by combining 175 mL of 0.1 M phosphoric acid with 825 mL of 0.1 M monobasic sodium monophosphate. […] The final concentration of the phosphate buffer was 0.1 M. Separation was carried out using isocratic elution. The flow rate was set to 1 mL/min. The total run time for sample elution was set to 10 min. The detector was set to a wavelength of 192 nm, with the column and autosampler operated at ambient temperature.
(§2) The mixture was vortexed for 40 s and centrifuged at 12,000 rpm for 10 min using an Eppendorf 5424 Microcentrifuge (Eppendorf, Hamburg, Germany). The resultant supernatant was then transferred to a separate HPLC vial with glass inserts. Aliquots of 30 μL was then injected into the HPLC system for analysis. The sample preparation was performed at room temperature and directly injected into the HPLC system.
(§3) The conditions for stability assessment were designed to simulate the conditions encountered during sample storage, handling, and analysis. […] Additionally, we conducted an assessment of freeze–thaw stability involving three cycles, each comprising a 24 h freezing period followed by room temperature thawing, with the cycle being repeated. Acceptability criteria included a stability ratio to reference samples falling within the range of 85% to 115% and a percentage error within 15%.

[2] = Stability of vancomycin in non-extracted human plasma samples; assay type: in vitro ADME; settings: for Mean back calculated Vancomycin Concentrations / % Error: non-extracted human plasma; for Mean back calculated Vancomycin Concentrations: HPLC-UV, mean of n = 5; for % Error: n = 5; for time of stability: plasma samples (non-extracted)
Description: as §1, §2, §3

[3] = Freeze and thaw stability of vancomycin in human plasma; assay type: in vitro ADME; settings: nominal 10 mg/L
Description: as §1
The mixture was vortexed for 40 s and centrifuged at 12,000 rpm for 10 min using an Eppendorf 5424 Microcentrifuge (Eppendorf, Hamburg, Germany). The resultant supernatant was then transferred to a separate HPLC vial with glass inserts. […]

[4] = cited from earlier work
Text: It is also the preferred agent for managing Gram-positive bacterial infections in patients allergic to beta-lactam antimicrobials.

[5] = -80 °C, 2 weeks, nominal 10 mg/L
[6] = -80 °C, 24 hours, nominal 10 mg/L
[7] = room temperature, 24 hours, nominal 10 mg/L
[8] = -20 °C, 2 weeks, nominal 10 mg/L
[9] = -80 °C, 24 hours, nominal 70 mg/L
[10] = fridge temperature, 2 weeks, nominal 10 mg/L
[11] = fridge temperature, 3 hours, nominal 10 mg/L
[12] = fridge temperature, 3 hours, nominal 70 mg/L
[13] = fridge temperature, 24 hours, nominal 10 mg/L

## CN[C@H](CC(C)C)C(=O)N[C@H]1C(=O)N[C@@H](CC(N)=O)C(=O)N[C@H]2C(=O)N[C@H]3C(=O)N[C@H](C(=O)N[C@H](C(=O)O)c4cc(O)cc(O)c4-c4cc3ccc4O)[C@H](O)c3ccc(c(Cl)c3)Oc3cc2cc(c3O[C@@H]2O[C@H](CO)[C@@H](O)[C@H](O)[C@H]2O[C@H]2C[C@](C)(N)[C@H](O)[C@H](C)O2)Oc2ccc(cc2Cl)[C@H]1O [Vancomycin]
[1]; extracted human plasma samples, -80 °C storage
  period with satisfactory precision and accuracy: 2 week
[1]; extracted human plasma samples, storage for 24 h, 1 week and 2 weeks
  degradation on storage at room temperature: substantial degradation
[1]; extracted human plasma samples, under refrigeration
  period with satisfactory precision and accuracy: 2 week
[1]; [5]
  Mean back calculated Vancomycin Concentrations: 8.980 mg/L
[1]; [6]
  Mean back calculated Vancomycin Concentrations: 9.888 mg/L
[1]; fridge temperature (4 °C), 2 weeks, nominal 10 mg/L
  Mean back calculated Vancomycin Concentrations: 8.307 mg/L
[1]; fridge temperature (4 °C), 3 hours, nominal 10 mg/L
  Mean back calculated Vancomycin Concentrations: 8.720 mg/L
[1]; fridge temperature (4 °C), 24 hours, nominal 10 mg/L
  Mean back calculated Vancomycin Concentrations: 9.740 mg/L
[1]; fridge temperature (4 °C), 24 hours, nominal 70 mg/L
  Mean back calculated Vancomycin Concentrations: 76.528 mg/L
[1]; room temperature, 1 week, nominal 10 mg/L
  Mean back calculated Vancomycin Concentrations: 2.491 mg/L
[1]; room temperature, 2 weeks, nominal 10 mg/L
  Mean back calculated Vancomycin Concentrations: 0.722 mg/L
[1]; room temperature, 2 weeks, nominal 70 mg/L
  Mean back calculated Vancomycin Concentrations: 3.647 mg/L
[1]; room temperature, 3 hours, nominal 10 mg/L
  Mean back calculated Vancomycin Concentrations: 9.283 mg/L
[1]; [7]
  Mean back calculated Vancomycin Concentrations: 6.792 mg/L
[2]; [8]
  Mean back calculated Vancomycin Concentrations: 8.179 mg/L
  % Error: 18.210%
[2]; -20 °C, 2 weeks, nominal 70 mg/L
  % Error: 12.943%
[2]; [5]
  Mean back calculated Vancomycin Concentrations: 8.809 mg/L
  % Error: 11.910%
[2]; -80 °C, 2 weeks, nominal 70 mg/L
  Mean back calculated Vancomycin Concentrations: 69.056 mg/L
[2]; [6]
  Mean back calculated Vancomycin Concentrations: 9.282 mg/L
[2]; [9]
  Mean back calculated Vancomycin Concentrations: 67.964 mg/L
  % Error: 2.909%
[2]; [10]
  Mean back calculated Vancomycin Concentrations: 8.404 mg/L
  % Error: 15.960%
[2]; fridge temperature, 2 weeks, nominal 70 mg/L
  % Error: 1.271%
[2]; [11]
  Mean back calculated Vancomycin Concentrations: 9.276 mg/L
  % Error: 7.240%
[2]; [12]
  Mean back calculated Vancomycin Concentrations: 75.272 mg/L
  % Error: 7.531%
[2]; [13]
  Mean back calculated Vancomycin Concentrations: 8.860 mg/L
  % Error: 11.400%
[2]; fridge temperature, 24 hours, nominal 70 mg/L
  % Error: 0.770%
[2]; room temperature, 3 hours, nominal 70 mg/L
  Mean back calculated Vancomycin Concentrations: 70.355 mg/L
[2]; [7]
  Mean back calculated Vancomycin Concentrations: 9.543 mg/L
[2]; -80 °C
  time of stability: 2 weeks
[2]; room temperature
  time of stability: 24 h
[3]; three freeze-thaw cycles (24 h freezing, room temperature thawing), HPLC-UV, mean of n = 5
  Mean back calculated Vancomycin Concentrations: 9.289 mg/L
[3]; three freeze-thaw cycles, n = 5
  % Error: 7.110%
[4]
  oral bioavailability: negligible
